Data taken from US20240139211A1, “METHODS AND COMPOSITIONS FOR TREATING AMYOTROPHIC LATERAL SCLEROSIS” (Amylyx Pharmaceuticals, Inc., priority 2022, published 2024).
Like-named read-outs stand apart in the source and are kept apart here.

Tests used:
[1] = biological target: OATP1B1 (Homo sapiens, UniProt Q9Y6L6); assay: Substrate of OATP1B1, uptake in HEK293 cells
Source text: (§1) Vector-transfected HEK cells were used as a control.

[2] = biological target: T1, OCT2 (Homo sapiens, UniProt O15244); assay: Substrate of OCT2, uptake in HEK293 cells
T1 sequence (O15244 1-555): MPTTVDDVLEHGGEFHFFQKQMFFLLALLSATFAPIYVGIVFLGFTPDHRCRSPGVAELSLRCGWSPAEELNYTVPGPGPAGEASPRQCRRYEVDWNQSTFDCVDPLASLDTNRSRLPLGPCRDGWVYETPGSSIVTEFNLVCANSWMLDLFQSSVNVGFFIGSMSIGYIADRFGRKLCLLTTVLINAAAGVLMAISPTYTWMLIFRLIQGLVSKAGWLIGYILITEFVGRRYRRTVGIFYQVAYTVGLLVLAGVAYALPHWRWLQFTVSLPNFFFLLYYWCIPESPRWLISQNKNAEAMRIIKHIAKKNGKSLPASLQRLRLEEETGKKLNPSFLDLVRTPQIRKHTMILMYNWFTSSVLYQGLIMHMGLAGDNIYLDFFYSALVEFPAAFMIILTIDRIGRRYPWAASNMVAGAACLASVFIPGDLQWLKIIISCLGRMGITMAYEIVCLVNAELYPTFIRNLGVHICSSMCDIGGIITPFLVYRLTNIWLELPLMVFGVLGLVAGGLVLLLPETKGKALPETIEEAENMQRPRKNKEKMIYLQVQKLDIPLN
Source text: as §1

[3] = biological target: T2, BCRP (Homo sapiens, UniProt Q9UNQ0); assay: Substrate of BCRP (Caco-2 cells, selective inhibitor)
T2 sequence (Q9UNQ0 1-655): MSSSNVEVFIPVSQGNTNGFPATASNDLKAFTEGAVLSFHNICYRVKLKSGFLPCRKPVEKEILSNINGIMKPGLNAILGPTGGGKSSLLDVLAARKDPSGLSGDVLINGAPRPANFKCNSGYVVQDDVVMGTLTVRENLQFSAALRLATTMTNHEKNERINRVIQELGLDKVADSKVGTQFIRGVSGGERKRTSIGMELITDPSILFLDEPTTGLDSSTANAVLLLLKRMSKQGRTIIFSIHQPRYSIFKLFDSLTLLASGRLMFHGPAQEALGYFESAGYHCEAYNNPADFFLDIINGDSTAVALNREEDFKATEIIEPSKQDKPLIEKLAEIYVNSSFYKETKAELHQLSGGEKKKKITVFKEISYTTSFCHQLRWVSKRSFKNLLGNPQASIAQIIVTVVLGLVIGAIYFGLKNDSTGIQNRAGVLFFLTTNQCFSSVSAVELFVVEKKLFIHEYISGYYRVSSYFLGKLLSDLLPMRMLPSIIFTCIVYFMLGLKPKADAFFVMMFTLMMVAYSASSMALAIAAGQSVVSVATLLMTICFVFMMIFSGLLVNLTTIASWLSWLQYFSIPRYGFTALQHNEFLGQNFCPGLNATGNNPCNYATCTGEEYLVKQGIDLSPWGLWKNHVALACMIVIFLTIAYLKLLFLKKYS

[4] = biological target: T3, MATE2K (Homo sapiens, UniProt Q86VL8); assay: Inhibitor of MATE2-K, probe substrate uptake; details: for potency estimated from few doses: read-out: Estimated IC50, MATE2-K; for Inhibition of MATE2-K / Inhibitor of MATE2-K: two concentrations per test article
T3 sequence (Q86VL8 1-566 isoform Q86VL8-3): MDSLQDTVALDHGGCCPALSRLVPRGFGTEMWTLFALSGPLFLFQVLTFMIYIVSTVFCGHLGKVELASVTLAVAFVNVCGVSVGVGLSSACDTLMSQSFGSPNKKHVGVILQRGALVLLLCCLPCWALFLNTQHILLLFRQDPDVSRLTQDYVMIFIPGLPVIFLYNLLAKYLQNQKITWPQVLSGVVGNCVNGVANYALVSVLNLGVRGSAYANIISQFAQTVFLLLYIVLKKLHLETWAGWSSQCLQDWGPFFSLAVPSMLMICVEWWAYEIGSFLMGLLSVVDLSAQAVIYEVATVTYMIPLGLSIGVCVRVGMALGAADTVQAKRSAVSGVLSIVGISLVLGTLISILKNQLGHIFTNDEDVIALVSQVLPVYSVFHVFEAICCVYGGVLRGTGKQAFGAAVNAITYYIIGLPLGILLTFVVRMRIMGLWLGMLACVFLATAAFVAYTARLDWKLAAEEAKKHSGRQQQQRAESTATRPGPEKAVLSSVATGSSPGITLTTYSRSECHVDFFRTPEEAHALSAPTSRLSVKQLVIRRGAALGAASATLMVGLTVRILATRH

[5] = biological target: T1, OCT2; assay: Inhibitor of OCT2, probe substrate uptake; details: for Inhibition of OCT2 / Inhibitor of OCT2: two concentrations per test article
[6] = biological target: T3, MATE2K; assay: Substrate of MATE2-K, uptake in HEK293 cells
Source text: as §1

[7] = biological target: T4, OAT3 (Homo sapiens, UniProt Q8TCC7); assay: Inhibitor of OAT3, probe substrate uptake; details: for potency estimated from few doses: read-out: Estimated IC50, OAT3; for Inhibition of OAT3 / Inhibitor of OAT3: two concentrations per test article
T4 sequence (Q8TCC7 1-542): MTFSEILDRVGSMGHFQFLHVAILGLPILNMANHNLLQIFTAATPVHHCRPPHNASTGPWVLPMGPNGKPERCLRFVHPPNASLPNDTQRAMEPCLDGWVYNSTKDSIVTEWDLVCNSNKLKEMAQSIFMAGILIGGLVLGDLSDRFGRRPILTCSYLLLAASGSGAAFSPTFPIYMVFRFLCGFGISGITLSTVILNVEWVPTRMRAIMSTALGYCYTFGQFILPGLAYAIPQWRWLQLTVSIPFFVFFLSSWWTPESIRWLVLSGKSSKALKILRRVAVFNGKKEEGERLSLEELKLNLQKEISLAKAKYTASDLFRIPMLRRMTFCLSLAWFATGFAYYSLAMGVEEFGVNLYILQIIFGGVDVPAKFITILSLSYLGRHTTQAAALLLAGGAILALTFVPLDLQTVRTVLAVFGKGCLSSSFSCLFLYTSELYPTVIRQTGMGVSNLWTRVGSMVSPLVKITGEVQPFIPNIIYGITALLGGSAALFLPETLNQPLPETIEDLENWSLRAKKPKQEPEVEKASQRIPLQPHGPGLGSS

[8] = biological target: T5, MATE1 (Homo sapiens, UniProt Q96FL8); assay: Substrate of MATE1, uptake in HEK293 cells
T5 sequence (Q96FL8 1-570): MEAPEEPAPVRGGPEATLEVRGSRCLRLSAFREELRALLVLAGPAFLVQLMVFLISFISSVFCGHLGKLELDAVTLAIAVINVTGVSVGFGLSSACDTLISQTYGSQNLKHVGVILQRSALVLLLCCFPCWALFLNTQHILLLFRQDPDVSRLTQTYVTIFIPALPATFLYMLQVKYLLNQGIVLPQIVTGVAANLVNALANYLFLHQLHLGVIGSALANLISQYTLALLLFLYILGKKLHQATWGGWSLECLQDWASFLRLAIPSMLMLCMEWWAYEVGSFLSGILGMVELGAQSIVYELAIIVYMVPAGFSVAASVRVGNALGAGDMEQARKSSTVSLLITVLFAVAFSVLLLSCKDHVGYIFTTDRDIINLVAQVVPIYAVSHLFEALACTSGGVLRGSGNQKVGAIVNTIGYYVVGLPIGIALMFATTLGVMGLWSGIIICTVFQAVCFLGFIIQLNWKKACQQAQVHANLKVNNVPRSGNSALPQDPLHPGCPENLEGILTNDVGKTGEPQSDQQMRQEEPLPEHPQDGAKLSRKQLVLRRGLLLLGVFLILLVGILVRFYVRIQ
Source text: as §1

[9] = test article 1 and 10 μM, Caco-2 cells
[10] = estimated from two concentrations

OATP1B1, sequence (Q9Y6L6 whole entry): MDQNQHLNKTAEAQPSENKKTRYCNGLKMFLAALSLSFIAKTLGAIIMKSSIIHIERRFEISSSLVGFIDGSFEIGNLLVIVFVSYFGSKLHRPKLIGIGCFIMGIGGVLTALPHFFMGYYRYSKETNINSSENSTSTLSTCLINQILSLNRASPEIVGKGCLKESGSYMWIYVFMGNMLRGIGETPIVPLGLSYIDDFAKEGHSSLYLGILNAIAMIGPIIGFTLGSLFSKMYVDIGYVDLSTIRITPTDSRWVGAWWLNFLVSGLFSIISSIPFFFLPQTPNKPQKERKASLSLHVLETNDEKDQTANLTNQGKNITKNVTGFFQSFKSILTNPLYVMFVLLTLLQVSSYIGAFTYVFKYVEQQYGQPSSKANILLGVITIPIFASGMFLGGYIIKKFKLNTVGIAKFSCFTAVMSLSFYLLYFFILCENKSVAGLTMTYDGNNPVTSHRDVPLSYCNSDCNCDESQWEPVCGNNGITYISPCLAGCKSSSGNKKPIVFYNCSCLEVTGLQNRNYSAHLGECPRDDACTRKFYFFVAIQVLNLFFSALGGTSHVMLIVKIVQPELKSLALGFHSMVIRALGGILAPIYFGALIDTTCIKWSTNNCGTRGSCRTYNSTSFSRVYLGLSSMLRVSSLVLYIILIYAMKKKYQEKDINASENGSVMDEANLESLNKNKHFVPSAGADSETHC

Compound	Substrate of OATP1B1 ([1]; 1 and 10 μM)	Substrate of OATP1B1 ([1]; test article 1 and 10 μM)	Substrate of OCT2 ([2]; 1 and 10 μM)	Substrate of OCT2 ([2]; test article 1 and 10 μM)	Substrate of BCRP ([3]; Caco-2, 1 and 10 μM)	Substrate of BCRP [3, 9]	potency estimated from few doses [4, 10] [µM]	potency estimated from few doses ([4]; estimated from two doses) [µM]	Inhibition of MATE2-K [4]	Inhibitor of MATE2-K [4]	Inhibition of OCT2 [5]	Inhibitor of OCT2 [5]	Substrate of MATE2-K ([6]; 1 and 10 μM)	Substrate of MATE2-K ([6]; test article 1 and 10 μM)	potency estimated from few doses [7, 10] [µM]	potency estimated from few doses ([7]; estimated from two doses) [µM]	Inhibition of OAT3 [7]	Inhibitor of OAT3 [7]	Substrate of MATE1 ([8]; 1 and 10 μM)	Substrate of MATE1 ([8]; test article 1 and 10 μM)	other results
tauroursodeoxycholic acid [TUDCA]	not a substrate	No	not a substrate	No	as a substrate	Yes	< 50	< 50	inhibited	Yes	did not inhibit	No	not a substrate	No	> 50	> 50	inhibited	Yes	not a substrate	No	Uptake activity remaining, MATE2-K ([4]; concentration not stated (5 and 50 μM tested)): 44.3%
O=C(O)CCCc1ccccc1 [PB, sodium phenylbutyrate]	–	–	–	–	not a substrate	No	–	–	did not inhibit	No	did not inhibit	No	–	–	< 25	–	inhibited	Yes	–	–	Decrease of MATE2-K uptake by known inhibitor ([6]; human, 2 min): > 25%; Uptake in MATE2-K cells ([6]; human, 2 min): 27.5 pmol/minute/mg protein; Uptake activity remaining, OAT3 ([7]; 25 μM): 44.3%
O=C(O)Cc1ccccc1 [Phenylacetic acid, phenylacetic acid]	not a substrate	No	not a substrate	No	not a substrate	No	–	–	did not inhibit	No	inhibited	Yes	identified as a substrate	Yes	–	–	did not inhibit	No	not a substrate	No^a	Uptake activity remaining, OCT2 ([5]; 7500 μM): 24.5%; potency estimated from few doses ([5]; read-out: Estimated IC50, OCT2, estimated from two concentrations): < 7500 µM; Net MATE2-K uptake remaining with inhibitor ([6]; 10 μM): 64.1%; Uptake in MATE2-K cells ([6]; 10 μM): 84.2 pmol/min/mg
ursodeoxycholic acid	not a substrate	No	not a substrate	No	not a substrate	No	> 500	> 500	inhibited	Yes	did not inhibit	No	not a substrate	No	< 50	< 50	inhibited	Yes	not a substrate	No	Uptake activity remaining, OAT3 ([7]; 50 μM): 27.6%
C[C@H](CCC(=O)NCC(=O)O)[C@H]1CC[C@H]2[C@@H]3[C@@H](O)C[C@@H]4C[C@H](O)CC[C@]4(C)[C@H]3CC[C@]12C [Glycoursodeoxycholic acid, glycoursodeoxycholic acid]	–	–	–	–	as a substrate	Yes	–	–	did not inhibit	No	did not inhibit	No	–	–	< 100	–	inhibited	Yes	–	–	Fold uptake by OATP1B1 over vector control ([1]; human, 5 min, 10 μM): 7.56 fold; Fold uptake by OATP1B1 over vector control with known inhibitors ([1]; human, 5 min, 10 μM): 1.80 fold; Efflux remaining with Ko143 ([3]; Caco-2): < 18.8%; Uptake activity remaining, OAT3 ([7]; 100 μM): 24.5%
